The record followed here is US20260008754A1, “N-SUBSTITUTED DERIVATIVES OF L-(L-PHENYL-3-ARYL)-LFF-PYRAZOL-4-YL)METHANAININE, METHOD FOR THEIR PRODUCTION AND THEIR APPLICATIONS” (priority 2022, published 2026).

In assay [1] the target is T1, μ opioid receptor (Homo sapiens, UniProt P35372). Kind of assay: μ opioid receptor agonism, β arrestin pathway. The assay is classed as cell-based.
Assay [2] concerns the target T1, μ opioid receptor. Put plainly: μ opioid receptor agonism, G protein signaling pathway. The assay is classed as cell-based. The settings on record: for Biased Agonism Selectivity Coefficient k: G protein pathway relative to β arrestin (ratio of the two EC50).
Where [3] appears, read: μ opioid receptor, β arrestin pathway, read-out: EC50 (β arrestin).
Setting [4] is: μ opioid receptor, G protein pathway, read-out: EC50 (G protein).

T1 sequence (P35372 whole entry, species assumed): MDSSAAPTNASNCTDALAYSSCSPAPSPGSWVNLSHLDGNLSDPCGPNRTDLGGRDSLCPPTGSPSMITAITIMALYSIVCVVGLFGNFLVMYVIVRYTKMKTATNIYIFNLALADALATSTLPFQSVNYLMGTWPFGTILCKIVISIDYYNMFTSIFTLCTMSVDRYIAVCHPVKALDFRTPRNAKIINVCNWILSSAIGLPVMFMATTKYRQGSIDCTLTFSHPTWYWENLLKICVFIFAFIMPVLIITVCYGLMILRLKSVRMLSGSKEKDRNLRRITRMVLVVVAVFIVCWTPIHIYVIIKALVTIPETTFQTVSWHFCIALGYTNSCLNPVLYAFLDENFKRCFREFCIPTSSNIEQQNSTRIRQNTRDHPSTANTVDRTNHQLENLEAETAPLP

With `CCCNC(=O)c1cccc(CNCc2cn(-c3ccccc3)nc2-c2ccncc2)c1` [Compound 1], the EC50 (in general, the concentration needed to bring the measured effect to its halfway point) at μ opioid receptor [1] was found to be 18800 nM. In addition, at μ opioid receptor [2], the EC50 came out at 704 nM and the “Biased Agonism Selectivity Coefficient k” value was 26.7.
In turn, `CCCNC(=O)c1cccc(CNCc2cn(-c3ccccc3)nc2-c2ccccc2)c1` [Compound 2] displayed an EC50 on μ opioid receptor [1] of 5060 nM. Also, on μ opioid receptor [2], the EC50 turned out to be 146 nM and the “Biased Agonism Selectivity Coefficient k” value was 34.8.
As to `c1ccc(-n2cc(CNCc3ccc4occc4c3)c(-c3ccncc3)n2)cc1` [Compound 3], the EC50 at μ opioid receptor [1] (setting [3]) amounted to 195 nM; at μ opioid receptor [2] (setting [4]), 1.24 nM. Moreover, the “Biased Agonism Selectivity Coefficient k” value on μ opioid receptor [2] was found to be 157.9.
`c1ccc(-c2nn(-c3ccccc3)cc2CNCc2ccc3occc3c2)cc1` [Compound 4] had an EC50 at μ opioid receptor [1] of 4570 nM. Further, at μ opioid receptor [2], a half-maximal response (EC50) required 139 nM and the “Biased Agonism Selectivity Coefficient k” value is 32.8.
Consider `Cc1cc(C)n2c(CNCc3cn(-c4ccccc4)nc3-c3ccccc3)cnc2n1` [Compound 6], for which, at μ opioid receptor [2], the 50% effective concentration (EC50) is 2190 nM.
Take `CCCOC(=O)c1cccc(CNCc2cn(-c3ccccc3)nc2-c2ccccc2)c1` [Compound 8]: the 50% effective concentration (EC50) on μ opioid receptor [1] was 569 nM; at μ opioid receptor [2], 6450 nM. For the same molecule, the “Biased Agonism Selectivity Coefficient k” value at μ opioid receptor [2] amounted to 11.3.
At μ opioid receptor [1], `CCCOC(=O)c1cccc(CNCc2cn(-c3ccccc3)nc2-c2ccncc2)c1` [Compound 9] yielded an EC50 of 1630 nM. At μ opioid receptor [2], the EC50 was 22200 nM and the “Biased Agonism Selectivity Coefficient k” value was determined as 13.6.
On μ opioid receptor [1], `CCOC(=O)c1cccc(CNCc2cn(-c3ccccc3)nc2-c2ccccc2)c1` [Compound 10] registered an EC50 of 1830 nM. Also, at μ opioid receptor [2], the EC50 turned out to be 13900 nM and the “Biased Agonism Selectivity Coefficient k” value was found to be 7.6.
On μ opioid receptor [1], `CCOC(=O)c1cccc(CNCc2cn(-c3ccccc3)nc2-c2ccncc2)c1` [Compound 11] displayed a 50% effective concentration (EC50) of 67500 nM. Also, at μ opioid receptor [2], the EC50 worked out at 7220 nM and the “Biased Agonism Selectivity Coefficient k” value is listed as 9.3.
`c1ccc(-n2cc(CNCc3ccc4c(c3)OCO4)c(-c3ccncc3)n2)cc1` [Compound 12]: the figures for the EC50 at μ opioid receptor [1] (setting [3]) and at μ opioid receptor [2] (setting [4]) were 23400 nM and 10.5 nM, respectively. At μ opioid receptor [2], the “Biased Agonism Selectivity Coefficient k” value is given as 2228.6.
Turning to `c1ccc(-n2cc(CNCc3ccc4c(c3)CCO4)c(-c3ccncc3)n2)cc1` [Compound 13], the EC50 on μ opioid receptor [1] (setting [3]) stood at 5890 nM; at μ opioid receptor [2] (setting [4]) it was 6.26 nM. The “Biased Agonism Selectivity Coefficient k” value at μ opioid receptor [2] came to 940.9.
`CC(C)Oc1ccc(CNCc2cn(-c3ccccc3)nc2-c2ccncc2)cc1` [Compound 14]: on μ opioid receptor [2], a half-maximal effect (EC50) was put at 521 nM.
Still for that read-out and setting: the value for `c1ccc(-n2cc(CNCCn3cccn3)c(-c3ccncc3)n2)cc1` [Compound 15] was 3100 nM.
